Laboratory results reported in patent US20240067632A1, “WEE1 Degrading Compounds and Uses Thereof” (Bristol-Myers Squibb Company, priority 2022, published 2024).

Assays:
[1] = target: T1, WEE1 (Homo sapiens, UniProt P30291+Q96SW2); assay: WEE1-ePL degradation assay (LentiX-WEE1-ePL-GSPT1-ND cells, InCELL Hunter luminescence, 4 h); type: cell-based; settings: 293T-LentiX WEE1-ePL cells; for 293T-LentiX WEE1-ePL Degradation 4 hr (Ymin): lower limit of the fit (0 = luciferase inhibitor, Ymax = DMSO control); for DC50: read-out: 293T-LentiX WEE1-ePL Degradation 4 hr (EC50)
T1 construct: C-terminal ePL-tagged (DiscoverX, Fremont, CA) full-length WEE1 expression construct; expressed in transfected cells; host or cells: LentiX-HEK293T (Invitrogen), lentiviral transduction; co-expressing GSPT1-GN (G576N, lacking the first 158 amino acids)
In short: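 First, compounds were pre-plated as 10-point, 3-fold dilutions (top 1 uM or 10 uM) with DMSO control; next, WEE1-ePL-expressing HEK293T cells were added and held 4 h at 37 °C; finally, InCELL Hunter reagent was applied for 30 min before luminescence reading. A 4PL fit gave EC50 and Ymin.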

[2] = test system: MKN45 cells; assay: MKN45 cell proliferation assay (Cell-Titer-Glo, 120 h); type: cell-based; settings: for EC50: Homo sapiens, MKN-45, 120 h, Cell-Titer-Glo, growth inhibition, read-out: MKN45 Cell Prolif. 120 hr (EC50); for MKN45 Cell Prolif. 120 hr (Ymin-Obs): minimal percent of DMSO control observed in the concentrations tested
In short: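 Cells seeded at 400/well onto pre-printed 10-point half-log dilutions (top 1 or 10 uM, 0.1% DMSO final), in triplicate, and grown 120 h at 37 C. Viability by Cell-Titer-Glo luminescence, blank-subtracted and normalised to DMSO; EC50 from four-parameter logistic fit, with observed minimal % of control recorded as Ymin-obs.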

| SMILES | 293T-LentiX WEE1-ePL Degradation 4 hr (Ymin) [1] | DC50 [1] | EC50 [2] | MKN45 Cell Prolif. 120 hr (Ymin-Obs) [2] |
| --- | --- | --- | --- | --- |
| CN1CCC(c2ccc3cc(CN4CC[C@H](Oc5ccc6c(c5)CN(C5CCC(=O)NC5=O)C6=O)C4)ccc3n2)CC1 (stereo partly drawn) [3-(5-{[(3S)-1-{[2-(1-methylpiperidin-4-yl)quinolin-6-yl]methyl}pyrrolidin-3-yl]oxy}-1-oxo-2,3-dihydro-1H-isoindol-2-yl)piperidine-2,6-dione] | 30 | 28.6 nM | 21.7 nM | 7.273 |
| O=C1CCC(N2Cc3cc(O[C@H]4CCN(Cc5ccc6nc(CC(F)F)ccc6c5)C4)ccc3C2=O)C(=O)N1 (stereo partly drawn) [3-(5-{[(3S)-1-{[2-(2,2-difluoroethyl)quinolin-6-yl]methyl}pyrrolidin-3-yl]oxy}-1-oxo-2,3-dihydro-1H-isoindol-2-yl)piperidine-2,6-dione] | 43.5 | 33.4 nM | 350 nM | 21.74 |
| CC1(C)CN(c2ncc3cc(CN4CC[C@H](Oc5ccc6c(c5)CN(C5CCC(=O)NC5=O)C6=O)C4)ccc3n2)CCO1 (stereo partly drawn) [3-(5-{[(3S)-1-{[2-(2,2-dimethylmorpholin-4-yl)quinazolin-6-yl]methyl}pyrrolidin-3-yl]oxy}-1-oxo-2,3-dihydro-1H-isoindol-2-yl)piperidine-2,6-dione] | 31 | 11.6 nM | 7.67 nM | 9.381 |
| CC1(C)CN(c2ccc3cc(CN4CC[C@H](Oc5ccc6c(c5)CN(C5CCC(=O)NC5=O)C6=O)C4)ccc3n2)CCO1 (stereo partly drawn) [3-(5-{[(3S)-1-{[2-(2,2-dimethylmorpholin-4-yl)quinolin-6-yl]methyl}pyrrolidin-3-yl]oxy}-1-oxo-2,3-dihydro-1H-isoindol-2-yl)piperidine-2,6-dione] | 32 | 2.41 nM | 2.61 nM | 10.48 |
| CC1(C)CC(c2ccc3cc(CN4CC[C@H](Oc5ccc6c(c5)CN(C5CCC(=O)NC5=O)C6=O)C4)ccc3n2)CCO1 (stereo partly drawn) [3-(5-{[(3S)-1-{[2-(2,2-dimethyloxan-4-yl)quinolin-6-yl]methyl}pyrrolidin-3-yl]oxy}-1-oxo-2,3-dihydro-1H-isoindol-2-yl)piperidine-2,6-dione] | 29 | 2.56 nM | 2.14 nM | 7.959 |
| CC(C)(O)c1ccc2cc(CN3CC[C@H](Oc4ccc5c(c4)CN(C4CCC(=O)NC4=O)C5=O)C3)ccc2n1 (stereo partly drawn) [3-(5-{[(3S)-1-{[2-(2-hydroxypropan-2-yl)quinolin-6-yl]methyl}pyrrolidin-3-yl]oxy}-1-oxo-2,3-dihydro-1H-isoindol-2-yl)piperidine-2,6-dione] | 32.75 | 4.09 nM | 14.1 nM | 11.2475 |
| COC(C)(C)c1ccc2cc(CN3CC[C@H](Oc4ccc5c(c4)CN(C4CCC(=O)NC4=O)C5=O)C3)ccc2n1 (stereo partly drawn) [3-(5-{[(3S)-1-{[2-(2-methoxypropan-2-yl)quinolin-6-yl]methyl}pyrrolidin-3-yl]oxy}-1-oxo-2,3-dihydro-1H-isoindol-2-yl)piperidine-2,6-dione] | 32.5 | 2.6 nM | 2.98 nM | 6.21 |
| O=C1CCC(N2Cc3cc(O[C@H]4CCN(Cc5ccc6nc(N7CCCC(F)(F)C7)ccc6c5)C4)ccc3C2=O)C(=O)N1 (stereo partly drawn) [3-(5-{[(3S)-1-{[2-(3,3-difluoropiperidin-1-yl)quinolin-6-yl]methyl}pyrrolidin-3-yl]oxy}-1-oxo-2,3-dihydro-1H-isoindol-2-yl)piperidine-2,6-dione] | 25.84 | 18.5 nM | 11.2 nM | 12.35 |
| CC1(C)CCN(c2ccc3cc(CN4CC[C@H](Oc5ccc6c(c5)CN(C5CCC(=O)NC5=O)C6=O)C4)ccc3n2)C1=O (stereo partly drawn) [3-(5-{[(3S)-1-{[2-(3,3-dimethyl-2-oxopyrrolidin-1-yl)quinolin-6-yl]methyl}pyrrolidin-3-yl]oxy}-1-oxo-2,3-dihydro-1H-isoindol-2-yl)piperidine-2,6-dione] | 29.67 | 7.36 nM | 3.88 nM | 7.37 |
| CC1(C)COCCN1c1ncc2cc(CN3CC[C@H](Oc4ccc5c(c4)CN(C4CCC(=O)NC4=O)C5=O)C3)ccc2n1 (stereo partly drawn) [3-(5-{[(3S)-1-{[2-(3,3-dimethylmorpholin-4-yl)quinazolin-6-yl]methyl}pyrrolidin-3-yl]oxy}-1-oxo-2,3-dihydro-1H-isoindol-2-yl)piperidine-2,6-dione] | 31.5 | 4.82 nM | 17.6 nM | 17.3 |
| CC1(C)COCCN1c1ccc2cc(CN3CC[C@H](Oc4ccc5c(c4)CN(C4CCC(=O)NC4=O)C5=O)C3)ccc2n1 (stereo partly drawn) [3-(5-{[(3S)-1-{[2-(3,3-dimethylmorpholin-4-yl)quinolin-6-yl]methyl}pyrrolidin-3-yl]oxy}-1-oxo-2,3-dihydro-1H-isoindol-2-yl)piperidine-2,6-dione] | 34 | 2.84 nM | 2.08 nM | 9.02 |
| O=C1CCC(N2Cc3cc(O[C@H]4CCN(Cc5ccc6nc(N7CC(O)C7)ccc6c5)C4)ccc3C2=O)C(=O)N1 (stereo partly drawn) [3-(5-{[(3S)-1-{[2-(3-hydroxyazetidin-1-yl)quinolin-6-yl]methyl}pyrrolidin-3-yl]oxy}-1-oxo-2,3-dihydro-1H-isoindol-2-yl)piperidine-2,6-dione] | 34 | 14.1 nM | 26.8 nM | 13.6 |
| COC1CN(c2ccc3cc(CN4CC[C@H](Oc5ccc6c(c5)CN(C5CCC(=O)NC5=O)C6=O)C4)ccc3n2)C1 (stereo partly drawn) [3-(5-{[(3S)-1-{[2-(3-methoxyazetidin-1-yl)quinolin-6-yl]methyl}pyrrolidin-3-yl]oxy}-1-oxo-2,3-dihydro-1H-isoindol-2-yl)piperidine-2,6-dione] | 36 | 2.3 nM | 6.82 nM | 11.6 |
| O=C1CCC(N2Cc3cc(O[C@H]4CCN(Cc5ccc6nc(N7CCC(F)(F)CC7)ccc6c5)C4)ccc3C2=O)C(=O)N1 (stereo partly drawn) [3-(5-{[(3S)-1-{[2-(4,4-difluoropiperidin-1-yl)quinolin-6-yl]methyl}pyrrolidin-3-yl]oxy}-1-oxo-2,3-dihydro-1H-isoindol-2-yl)piperidine-2,6-dione] | 21.62 | 38.4 nM | 17.9 nM | 17.9 |
| CC1(C)CC(=O)N(c2ccc3cc(CN4CC[C@H](Oc5ccc6c(c5)CN(C5CCC(=O)NC5=O)C6=O)C4)ccc3n2)C1 (stereo partly drawn) [3-(5-{[(3S)-1-{[2-(4,4-dimethyl-2-oxopyrrolidin-1-yl)quinolin-6-yl]methyl}pyrrolidin-3-yl]oxy}-1-oxo-2,3-dihydro-1H-isoindol-2-yl)piperidine-2,6-dione] | 31 | 1.58 nM | 2.77 nM | 8.145 |
